Results published in patent publication US5780441A, “Sphingoglycolipid compounds and therapeutic uses thereof” (Kirin Beer Kabushiki Kaisha, priority 1993, dated 1998).

Tests used:
[1] = test system: mixed lymphocyte culture reaction (spleen cells of C57BL/6 and BALB/C mice); assay: Mixed lymphocyte culture reaction (MLR); format: cell-based, mouse (C57BL/6 stimulator, BALB/C responder); details: Mus musculus, Lymphocyte, 42 hours, read-out: MLR activating rate (%); for activity at 1 µg/mL: 1 × 10^0 μg/ml; for activity at 0.1 µg/mL: 1 × 10^-1 μg/ml
Procedure: ii) Mixed lymphocyte culture reaction (MLR) of the compounds of the present invention
Spleen cells were prepared from C57BL/6 mice and treated with 50 μg/ml of mitomycin C for 30 minutes. The treated cells were used as stimulator cells, and the spleen cells of BALB/C mice as responder cells. 2×10^6 cells/ml of the both spleen cells were suspended in 10% FCS RPMI1640 as a culture medium. The above-described cells (50 μl/well) and a sample (10 μl/well) were added into wells of a round-bottomed 96 well plate, and cultured under the condition of 5% CO2 at 37° C. for 42 hours. 0.5 μCi/well of ^3 H-thymidine (^3 H-TdR) was added. After 8 hours, the cells were harvested, and the amount of uptaken ^3 H-TdR was measured by a liquid scintillation counter to calculate the ratio (%) of the uptake of ^3 H-TdR in the sample group to that in the vehicle group as the MLR activating rate.

[2] = test system: P388 mouse leukemia cells; assay: Life-span-prolonging (anti-tumor) effect on mice subcutaneously inoculated with P388 mouse leukemia cells; format: in vivo, mouse (CDF1 female); details: for Survival days ave. ± s. d. / response vs control in vivo at 0.1 mg/kg: 0.1 mg/kg i.v. on days 1, 5 and 9; for Survival days ave. ± s. d.: all marked ** (p < 0.01); for response vs control in vivo at 0.1 mg/kg: Mus musculus, P388, iv, survival vs vehicle, read-out: T/C (%)
Procedure: i) Anti-tumor effect of the compound of the present invention on mice subcutaneously inoculated with P388 mouse leukemia cells.
Experiment was performed with CDF1 female mice (6 weeks) purchased from NIPPON SLC K.K., which were divided into groups consisting of 5 animals. […]. In this connection, lentinan and picibanil were administered intravenously on days 1, 3, 5, 7 and 9 after implantation, and sizofilan was administered subcutaneously on days 1 through 9. Statistical analysis was performed according to the Mann-Whiteney test.

[3] = test system: mouse bone marrow cells; assay: In vitro mouse bone marrow cell-proliferation-promoting effect (3H-TdR uptake); format: cell-based, mouse (BDF1 female); details: Mus musculus, Bone marrow cell, 96 h, 4 days, read-out: Uptake of 3H-TdR (% of control), bone marrow cells; for activity at 0.1 µg/mL: 10^-1 μg/ml; for activity at 0.01 µg/mL: 10^-2 μg/ml
Procedure: In vitro mouse bone marrow cell-proliferation-promoting effect of the present compound
Experiment was performed with BDF1 female mice (6 weeks old) purchased from NIPPON SLC K.K. Bone marrow cells were removed from the femoral bone of mice by the conventional manner, floated on 10% FCS RPMI 1640, layered over Lympholite M, and centrifuged to give a monocyte fraction. 1×10^6 cells/ml of the monocyte fraction was suspended in 10% FCS RPMI 1640. The cell suspension (100 μl/well) and a vehicle or sample (10 μl/well) which was prepared so as to have a final level shown in Table 2 were added into a wells of round-bottomed 96 well plate, and cultured under the condition of 5% CO2 at 37° C. for 4 days. 0.5 μCi/well of ^3 H-thymidine (^3 H-TdR) was added. After 6 hours, the cells were harvested, and the amount of ^3 H-TdR uptaken into nucleus was measured by a liquid scintillation counter. The ratio of the uptake of ^3 H-TdR in the sample group to that in the vehicle group was calculated and used as the activation rate for promoting in vitro mouse bone marrow cell growth.

[4] = test system: mouse splenic lymphocyte; assay: In vitro mouse splenic lymphocyte-proliferation-stimulating effect (3H-TdR uptake); format: cell-based, mouse (BDF1 female); details: Mus musculus, Splenic lymphocyte, 48 h, 2 days, read-out: Uptake of 3H-TdR (% of control), splenic lymphocytes; for activity at 1 µg/mL: 10^0 μg/ml; for activity at 0.01 µg/mL: 10^-2 μg/ml; for activity at 0.001 µg/mL: 10^-3 μg/ml; for activity at 0.1 µg/mL: 10^-1 μg/ml
Procedure: i) In vitro mouse splenic lymphocyte growth promoting effects of the present compounds
Experiment was performed with BDF1 female mice (6 weeks old) purchased from NIPPON SLC K.K. Spleens were removed from mice, and spleen cells were brayed with slide glasses and hemolized with NH4 Cl. 2×10^6cells/ml of the spleen cells which had been hemolized were suspended in 10% FCS RPMI 1640. The cell suspension (100 μl/well) and a vehicle or sample (10 μl/well) which was prepared so as to have a final level shown in Table 3 were added into wells of a round-bottomed 96 well plate, and cultured under the condition of 5% CO2 at 37° C. for 2 days. 0.5 μCi/well of ^3 H-thymidine (^3 H-TdR) was added. After 6 hours, the cells were harvested, and the amount of ^3 H-TdR uptaken into nucleus was measured by a liquid scintillation counter. The ratio (%) of the uptake of ^3 H-TdR in the sample group to that in the vehicle group was calculated and used as the in vitro mouse splenic lymphocyte-proliferation-stimulating rate.

| Structure (SMILES) | activity at 1 µg/mL [1] | activity at 0.1 µg/mL [1] | Survival days ave. ± s. d. [2] | response vs control in vivo at 0.1 mg/kg [2] | activity at 0.1 µg/mL [3] | activity at 0.01 µg/mL [3] | activity at 1 µg/mL [4] | activity at 0.01 µg/mL [4] | activity at 0.001 µg/mL [4] | life-span-prolonging effect (anti-tumor effect), in words ([2]; P388 s.c. system) | activity at 0.1 µg/mL [4] |
| --- | --- | --- | --- | --- | --- | --- | --- | --- | --- | --- | --- |
| CCCCCCCCCCCCCCCCCCCCC[C@@H](O)C(=O)N[C@@H](CO[C@H]1O[C@H](CO)[C@H](O)[C@H](O[C@@H]2O[C@@H]([C@H](O)CO)[C@H](O)[C@H]2O)[C@H]1O)[C@H](O)[C@H](O)CCCCCCCCCCCC [Compound 11, O-β-D-galactofuranosyl-(1→3)-O-α-D-galactopyranosyl-(1→1)-(2S,3S,4R)-2-amino-N-[(R)-2-hydroxytricosanoyl]-1,3,4-hexadecanetriol] | 225% | 258% | 13.4 ± 0.5 days | 105% | 410% | 281% | 646% | 858% | 116% | – | – |
| CCCCCCCCCCCCCCCCCCCCCCCCCC(=O)N[C@@H](CO[C@H]1O[C@H](CO)[C@@H](O[C@H]2O[C@H](CO)[C@@H](O)[C@H](O)[C@H]2O)[C@H](O)[C@H]1O)[C@H](O)[C@H](O)CCCCCCCCCCCCCC [Compound 35, O-α-D-glucopyranosyl-(1→4)-O-α-D-glucopyranosyl-(1→1)-(2S,3S,4R)-2-amino-N-hexacosanoyl-1,3,4-octadecanetriol] | 165% | 133% | 14.8 ± 1.3 days | 116% | 223% | 148% | 431% | 803% | 538% | intensive anti-tumor effects almost in the same level as that of Compound b | 874% |
| CCCCCCCCCCCCCCCCCCCCCC[C@@H](O)C(=O)N[C@@H](CO[C@H]1O[C@H](CO)[C@H](O)[C@H](O[C@@H]2O[C@@H]([C@H](O)CO)[C@H](O)[C@H]2O)[C@H]1O)[C@H](O)[C@H](O)CCCCCCCCCCCCC(C)C [Compound 17, O-β-D-galactofuranosyl-(1→3)-O-α-D-galactopyranosyl-(1→1)-(2S,3S,4R)-2-amino-N-[(R)-2-hydroxytetracosanoyl]-17-methyl-1,3,4-octadecanetriol] | 283% | 242% | 14.8 ± 0.8 days | 116% | 592% | – | 781% | – | 767% | – | – |
| CCCCCCCCCCCCCCCCCCCCCC[C@@H](O)C(=O)N[C@@H](CO[C@H]1O[C@H](CO)[C@H](O)[C@H](O[C@@H]2O[C@@H]([C@H](O)CO)[C@H](O)[C@H]2O)[C@H]1O)[C@H](O)[C@H](O)CCCCCCCCCCCCCC [Compound 16, O-β-D-galactofuranosyl-(1→3)-O-α-D-galactopyranosyl-(1→1)-(2S,3S,4R)-2-amino-N-[(R)-2-hydroxytetracosanoyl]-1,3,4-octadecanetriol] | 274% | 262% | 14.8 ± 0.8 days | 116% | 325% | 296% | 740% | – | 702% | – | – |
| CCCCCCCCCCCCCCCCCCCCCC[C@@H](O)C(=O)N[C@@H](CO[C@H]1O[C@H](CO)[C@H](O)[C@H](O[C@@H]2O[C@@H]([C@H](O)CO)[C@H](O)[C@H]2O)[C@H]1O)[C@H](O)[C@H](O)CCCCCCCCCCC(C)C [Compound 13, O-β-D-galactofuranosyl-(1→3)-O-α-D-galactopyranosyl-(1→1)-(2S,3S,4R)-2-amino-N-[(R)-2-hydroxytetracosanoyl]-15-methyl-1,3,4-hexadecanetriol] | 276% | 248% | 14.6 ± 0.5 days | 114% | 546% | 395% | 788% | – | 227% | – | – |
| CCCCCCCCCCCCCCCCCCCCCC[C@@H](O)C(=O)N[C@@H](CO[C@H]1O[C@H](CO)[C@H](O)[C@H](O[C@@H]2O[C@@H]([C@H](O)CO)[C@H](O)[C@H]2O)[C@H]1O)[C@H](O)[C@H](O)CCCCCCCCCCCCC [Compound 14, O-β-D-galactofuranosyl-(1→3)-O-α-D-galactopyranosyl-(1→1)-(2S,3S,4R)-2-amino-N-[(R)-2-hydroxytetracosanoyl]-1,3,4-heptadecanetriol] | 261% | 232% | 13.8 ± 0.4 days | 108% | 838% | 659% | 640% | – | 252% | – | – |
| CCCCCCCCCCCCCCCCCCCCCC[C@@H](O)C(=O)N[C@@H](CO[C@H]1O[C@H](CO)[C@H](O)[C@H](O[C@@H]2O[C@@H]([C@H](O)CO)[C@H](O)[C@H]2O)[C@H]1O)[C@H](O)[C@H](O)CCCCCCCCCCCC [Compound 12, O-β-D-galactofuranosyl-(1→3)-O-α-D-galactopyranosyl-(1→1)-(2S,3S,4R)-2-amino-N-[(R)-2-hydroxytetracosanoyl]-1,3,4-hexadecanetriol] | 203% | 187% | 13.8 ± 0.8 days | 108% | 381% | 378% | 509% | 772% | 113% | – | 982% |
| CCCCCCCCCCCCCCCCCCCCCC[C@@H](O)C(=O)N[C@@H](CO[C@H]1O[C@H](CO)[C@H](O)[C@H](O[C@@H]2O[C@@H]([C@H](O)CO)[C@H](O)[C@H]2O)[C@H]1O)[C@H](O)[C@H](O)CCCCCCCCCCCC(C)C [Compound 15, O-β-D-galactofuranosyl-(1→3)-O-α-D-galactopyranosyl-(1→1)-(2S,3S,4R)-2-amino-N-[(R)-2-hydroxytetracosanoyl]-16-methyl-1,3,4-heptadecanetriol] | 295% | 253% | 14.0 ± 0 days | 109% | 501% | 291% | 845% | – | 394% | – | – |
